From US9796711B2, “Substituted pyrazolo[3,4-b]pyridin-6-carboxylic acids and method of use” (AbbVie S.àr.l., priority 2015, dated 2017)

Target: T1, ΔF508-CFTR (Homo sapiens, UniProt P13569, DEL508-508)
T1 construct: host or cells: CFBE41o-, doxycycline-inducible
Experiment: CFTR cell surface levels using HRP-tagged ΔF508-CFTR expressing CFBE cells, in the presence of a co-corrector
Type: cell-based
Conditions: HRP-tagged ΔF508-CFTR expressing CFBE cells, in the presence of 3 μM co-corrector; for EC50: read-out: EC50
Description: Measuring CFTR Cell Surface Levels Using HRP-Tagged AF508-CFTR Expressing CFBE Cells
The HRP-tagged AF508-CFTR cell assay measures the expression of CFTR-ΔF508 at the plasma membrane. CFTR-ΔF508 has a folding defect leading to absence of protein at the plasma membrane. This assay is used to evaluate the capacity of compounds to increase the expression of CFTR-ΔF508 at the plasma membrane. The CFTR-ΔF508 is tagged with HRP (horse radish peroxidase enzyme) within the ECL4 (Extracellular loop 4) of CFTR (Phuan, P.-W. et al. Synergy-based small-molecule screen using a human lung epithelial cell line yields AF508-CFTR correctors that augment VX-809 maximal efficacy. Mol. Pharmacol. 86, 42-51 (2014)). When HRP-tagged AF508-CFTR is present at the plasma membrane, the HRP enzyme activity can be measured. The amount of CFTR-ΔF508 that can be rescued to the plasma membrane is correlated with the amount of functional enzyme that can be measured.
There are several ways to measure the capacity of compounds to rescue CFTR-ΔF508 to the plasma membrane; either compounds are evaluated on their own and the impact on plasma membrane levels is measured or compounds are evaluated in combination with a co-corrector, i.e. a compound that rescues CFTR-ΔF508 to the plasma membrane but rescue can be enhanced by addition of compounds due to a complementary mode of action.
Activity of Compounds in Combination with Co-Corrector:
For this purpose doxycycline-inducible AF508-CFTR-HRP expressing CFBE4lo-cells (obtained from Gergely Lukacs, McGill University) were maintained in MEM (Minimum Essential Medium, Gibco; 31095) supplemented with 10% fetal bovine serum (Hyclone; SV30160.03) under puromycin (3 μg/mL) and G418 selection (0.2 mg/mL). For compound testing, cells were seeded at 4000 cells/well in white 384-well plates (Greiner; 781080) in 50 μL of medium containing 0.5 μg/mL doxycycline and incubated for 68 hours at 37° C., 5% CO2. On day four, 10 μL of test compounds diluted in PBS (phosphate buffered saline) were added to the plates at a final DMSO concentration of 0.1%. In order to measure compound synergy with a co-corrector, 3 μM co-corrector (3-[(2R,4R)-4-({[1-(2,2-difluoro-1,3-benzodioxol-5-yl)cyclopropyl]carbonyl}amino)-7-methoxy-3,4-dihydro-2H-chromen-2-yl]benzoic acid) was added along with test compounds. All compound plates contained negative controls (DMSO) and positive controls (3 μM co-corrector). Cell plates were incubated at 33° C., 5% CO2 for 20 hours. On day five, the cells were washed five times with phosphate-buffered saline, and HRP activity was assayed by the addition of 50 μL/well of HRP substrate (SuperSignal™ West Pico Chemiluminescent Substrate, Thermo Scientific; 34080). After incubation for 15 minutes in the dark, the chemiluminescence was measured using a plate reader (EnVision®, Perkin Elmer). Raw data were normalized to percentage activity values using the equation: 100×(Sample−Negative control)/(Positive control−Negative Control).

T1 sequence (P13569 with tags, fused parts or gaps DEL508-508): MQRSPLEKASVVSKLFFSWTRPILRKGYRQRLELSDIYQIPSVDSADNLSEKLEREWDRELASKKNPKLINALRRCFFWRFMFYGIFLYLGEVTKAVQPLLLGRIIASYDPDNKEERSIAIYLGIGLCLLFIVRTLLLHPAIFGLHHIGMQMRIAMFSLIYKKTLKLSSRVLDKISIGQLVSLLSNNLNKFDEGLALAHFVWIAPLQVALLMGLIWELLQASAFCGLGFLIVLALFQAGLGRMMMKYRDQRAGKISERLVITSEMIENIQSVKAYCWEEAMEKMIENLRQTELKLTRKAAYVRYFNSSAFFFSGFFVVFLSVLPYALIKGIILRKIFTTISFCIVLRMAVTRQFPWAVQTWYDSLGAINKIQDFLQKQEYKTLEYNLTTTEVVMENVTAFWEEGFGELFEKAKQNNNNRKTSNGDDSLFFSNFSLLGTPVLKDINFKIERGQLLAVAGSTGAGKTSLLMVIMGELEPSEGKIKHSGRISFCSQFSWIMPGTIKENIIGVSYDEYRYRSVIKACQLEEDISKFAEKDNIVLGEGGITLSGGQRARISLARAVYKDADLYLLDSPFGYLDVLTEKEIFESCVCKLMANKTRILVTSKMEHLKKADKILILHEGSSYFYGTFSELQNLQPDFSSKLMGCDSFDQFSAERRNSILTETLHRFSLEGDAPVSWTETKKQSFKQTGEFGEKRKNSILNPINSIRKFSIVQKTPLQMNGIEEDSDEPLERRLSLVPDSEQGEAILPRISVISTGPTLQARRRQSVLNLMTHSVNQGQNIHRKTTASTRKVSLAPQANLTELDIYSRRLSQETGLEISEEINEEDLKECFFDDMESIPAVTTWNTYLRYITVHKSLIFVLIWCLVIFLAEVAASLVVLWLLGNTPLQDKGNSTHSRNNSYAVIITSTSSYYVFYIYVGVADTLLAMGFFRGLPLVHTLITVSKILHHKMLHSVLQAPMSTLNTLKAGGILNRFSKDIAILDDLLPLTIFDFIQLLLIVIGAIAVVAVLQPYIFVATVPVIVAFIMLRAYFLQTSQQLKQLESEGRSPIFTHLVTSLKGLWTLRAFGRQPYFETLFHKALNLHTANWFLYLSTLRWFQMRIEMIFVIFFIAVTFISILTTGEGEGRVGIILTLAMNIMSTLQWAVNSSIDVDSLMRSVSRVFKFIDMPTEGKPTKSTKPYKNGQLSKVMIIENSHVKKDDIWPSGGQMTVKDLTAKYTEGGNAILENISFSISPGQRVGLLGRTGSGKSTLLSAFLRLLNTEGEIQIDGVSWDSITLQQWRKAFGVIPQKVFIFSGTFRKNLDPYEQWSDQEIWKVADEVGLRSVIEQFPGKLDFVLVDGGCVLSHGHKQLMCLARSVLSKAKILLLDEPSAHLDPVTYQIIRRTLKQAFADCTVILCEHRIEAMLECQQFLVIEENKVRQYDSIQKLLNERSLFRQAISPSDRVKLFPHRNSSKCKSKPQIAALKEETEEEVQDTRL

## CC(C)c1nn(-c2ccc(F)cc2)c2nc(C(=O)O)cc(OCC3(C)COC3)c12 [compound 608, 1-(4-fluorophenyl)-4-[(3-methyloxetan-3-yl)methoxy]-3-(propan-2-yl)-1H-pyrazolo[3,4-b]pyridine-6-carboxylic acid]
  % Activation: 338.1%
  EC50: 683 nM

## O=C(O)c1cc(O[C@H]2C[C@@H](N3CCC3)C2)c2c(C3CCC3)nn(-c3ccccc3)c2n1 [compound 598, 4-{[cis-3-(azetidin-1-yl)cyclobutyl]oxy}-3-cyclobutyl-1-phenyl-1H-pyrazolo[3,4-b]pyridine-6-carboxylic acid]
  % Activation: 274.4%
  EC50: 3330 nM

## COCCOCC1(F)CCN(c2cc(C(=O)O)nc3c2c(C(C)C)nn3-c2ccc(F)cc2)CC1 [compound 667, 4-{4-fluoro-4-[(2-methoxyethoxy)methyl]piperidin-1-yl}-1-(4-fluorophenyl)-3-(propan-2-yl)-1H-pyrazolo[3,4-b]pyridine-6-carboxylic acid]
  % Activation: 339.85%
  EC50: 462 nM

## CC(O)CN1CCC(N2CCN(c3cc(C(=O)O)nc4c3c(C(C)C)nn4-c3ccc(F)cc3)CC2)CC1 (stereo not shown) [compound 742, 1-(4-fluorophenyl)-4-{4-[1-(2-hydroxypropyl)piperidin-4-yl]piperazin-1-yl}-3-(propan-2-yl)-1H-pyrazolo[3,4-b]pyridine-6-carboxylic acid]
  % Activation: 126.1%
  EC50: 5000 nM

## O=C(O)c1cc(N2CCC(N3CCCC(C(=O)N4CCOCC4)C3)CC2)c2c(C3CCC3)nn(-c3ccccc3)c2n1 (stereo not shown) [compound 711, 3-cyclobutyl-4-[3-(morpholine-4-carbonyl)[1,4′-bipiperidin]-1′-yl]-1-phenyl-1H-pyrazolo[3,4-b]pyridine-6-carboxylic acid]
  % Activation: 248.8%
  EC50: 1110 nM

## CC(C)(O)C1CCN(c2cc(C(=O)O)nc3c2c(C2CCC2)nn3-c2ccccc2)CC1 [compound 659, 3-cyclobutyl-4-[4-(2-hydroxypropan-2-yl)piperidin-1-yl]-1-phenyl-1H-pyrazolo[3,4-b]pyridine-6-carboxylic acid]
  % Activation: 424.5%
  EC50: 69.5 nM

## CC(C)N1CCCN(c2cc(C(=O)O)nc3c2c(C2CCC2)nn3-c2ccccc2)CC1 [compound 691, 3-cyclobutyl-1-phenyl-4-[4-(propan-2-yl)-1,4-diazepan-1-yl]-1H-pyrazolo[3,4-b]pyridine-6-carboxylic acid]
  % Activation: 280.7%
  EC50: 5000 nM

## O=C(O)c1cc(N2CCC3(C2)OCCO3)c2c(C3CCC3)nn(-c3ccccc3)c2n1 [compound 713, 3-cyclobutyl-4-(1,4-dioxa-7-azaspiro[4.4]nonan-7-yl)-1-phenyl-1H-pyrazolo[3,4-b]pyridine-6-carboxylic acid]
  % Activation: 243.5%
  EC50: 659 nM

## CCCN1CCCN(c2cc(C(=O)O)nc3c2c(C2CCC2)nn3-c2ccccc2)CC1 [compound 712, 3-cyclobutyl-1-phenyl-4-(4-propyl-1,4-diazepan-1-yl)-1H-pyrazolo[3,4-b]pyridine-6-carboxylic acid]
  % Activation: 242.9%
  EC50: 608 nM

## COCCOCC1(F)CCCN(c2cc(C(=O)O)nc3c2c(C(C)C)nn3-c2ccc(F)cc2)C1 (stereo not shown) [compound 670, 4-{3-fluoro-3-[(2-methoxyethoxy)methyl]piperidin-1-yl}-1-(4-fluorophenyl)-3-(propan-2-yl)-1H-pyrazolo[3,4-b]pyridine-6-carboxylic acid]
  % Activation: 397.3%
  EC50: 218 nM

## CC(C)c1nn(-c2ccc(F)cc2)c2nc(C(=O)O)cc(N3CCC(C(=O)N4CCN(C)CC4)CC3)c12 [compound 755, 1-(4-fluorophenyl)-4-[4-(4-methylpiperazine-1-carbonyl)piperidin-1-yl]-3-(propan-2-yl)-1H-pyrazolo[3,4-b]pyridine-6-carboxylic acid]
  % Activation: 270.9%
  EC50: 1670 nM

## CN(C)CCCN1CCN(c2cc(C(=O)O)nc3c2c(C2CCC2)nn3-c2ccccc2)CC1 [compound 728, 3-cyclobutyl-4-{4-[3-(dimethylamino)propyl]piperazin-1-yl}-1-phenyl-1H-pyrazolo[3,4-b]pyridine-6-carboxylic acid]
  % Activation: 221.6%
  EC50: 1670 nM

## O=C(O)c1cc(N2CCC(CCCN3CCCCC3)CC2)c2c(C3CCC3)nn(-c3ccccc3)c2n1 [compound 732, 3-cyclobutyl-1-phenyl-4-{4-[3-(piperidin-1-yl)propyl]piperidin-1-yl}-1H-pyrazolo[3,4-b]pyridine-6-carboxylic acid]
  % Activation: 409.6%
  EC50: 119 nM

## CC(C)c1nn(C2CCCCC2)c2nc(C(=O)O)cc(N3CCC(C#N)CC3)c12 [compound 263, 4-(4-cyanopiperidin-1-yl)-1-cyclohexyl-3-(propan-2-yl)-1H-pyrazolo[3,4-b]pyridine-6-carboxylic acid]
  % Activation: 334.25%
  EC50: 1130 nM

## C[C@H]1CN(c2cc(C(=O)O)nc3c2c(C2CCC2)nn3C2CCCCC2)CCN1Cc1ccccc1 [compound 881, 4-[(3S)-4-benzyl-3-methylpiperazin-1-yl]-3-cyclobutyl-1-cyclohexyl-1H-pyrazolo[3,4-b]pyridine-6-carboxylic acid]
  % Activation: 242.75%
  EC50: 700 nM

## O=C(O)c1cc(N2CCC(CCN3CCOCC3)CC2)c2c(C3CCC3)nn(C3CCCCC3)c2n1 [compound 807, 3-cyclobutyl-1-cyclohexyl-4-{4-[2-(morpholin-4-yl)ethyl]piperidin-1-yl}-1H-pyrazolo[3,4-b]pyridine-6-carboxylic acid]
  % Activation: 389.35%
  EC50: 72.5 nM

## COc1cc(C(=O)O)nc2c1c(C1CCC1)nn2-c1ccccc1 [compound 584, 3-cyclobutyl-4-methoxy-1-phenyl-1H-pyrazolo[3,4-b]pyridine-6-carboxylic acid]
  % Activation: 202.2%
  EC50: 2880 nM

## CN(C)[C@@H]1CCN(c2cc(C(=O)O)nc3c2c(C2CCC2)nn3-c2ccccc2)C1 [compound 567, 3-cyclobutyl-4-[(3R)-3-(dimethylamino)pyrrolidin-1-yl]-1-phenyl-1H-pyrazolo[3,4-b]pyridine-6-carboxylic acid]
  % Activation: 302.8%
  EC50: 2110 nM

## COCc1nn(-c2ccccc2)c2nc(C(=O)O)cc(-c3ccc(N4CCOCC4)cc3)c12 [compound 122, 3-(methoxymethyl)-4-[4-(morpholin-4-yl)phenyl]-1-phenyl-1H-pyrazolo[3,4-b]pyridine-6-carboxylic acid]
  % Activation: 311.75%
  EC50: 1770 nM

## O=C(O)c1cc(N2CCC(OCCN3CCCCC3)CC2)c2c(C3CCC3)nn(-c3ccccc3)c2n1 [compound 730, 3-cyclobutyl-1-phenyl-4-{4-[2-(piperidin-1-yl)ethoxy]piperidin-1-yl}-1H-pyrazolo[3,4-b]pyridine-6-carboxylic acid]
  % Activation: 418.7%
  EC50: 71.5 nM

## Cc1nn(-c2ccccc2)c2nc(C(=O)O)cc(-c3ccc(N(C)C4CCOCC4)cc3)c12 [compound 110, 3-methyl-4-{4-[methyl(oxan-4-yl)amino]phenyl}-1-phenyl-1H-pyrazolo[3,4-b]pyridine-6-carboxylic acid]
  % Activation: 397.65%
  EC50: 536 nM

## CC(C)c1nn(-c2ccc(F)cc2)c2nc(C(=O)O)cc(N3CC(N4CCC(N(C)C5COC5)CC4)C3)c12 [compound 758, 1-(4-fluorophenyl)-4-(3-{4-[methyl(oxetan-3-yl)amino]piperidin-1-yl}azetidin-1-yl)-3-(propan-2-yl)-1H-pyrazolo[3,4-b]pyridine-6-carboxylic acid]
  % Activation: 139.5%
  EC50: 812 nM

## CCOCCN1CCC(N2CCN(c3cc(C(=O)O)nc4c3c(C3CCC3)nn4-c3ccccc3)CC2)CC1 [compound 726, 3-cyclobutyl-4-{4-[1-(2-ethoxyethyl)piperidin-4-yl]piperazin-1-yl}-1-phenyl-1H-pyrazolo[3,4-b]pyridine-6-carboxylic acid]
  % Activation: 409.6%
  EC50: 311 nM
